This is an account of results in patent publication US6348587B1, “2′-Fluoronucleosides” (Emory University, priority 1998, dated 2002).

What is called EC50 is the concentration that produces a half-maximal response. Broadly, the EC90 is the point of the concentration-response curve where the effect stands at 90%. Low readings indicate an effect from little substance, high ones a need for much substance. In general, IC50 refers to the point on the concentration scale where inhibition reaches its midpoint. Read a high IC50 as lower potency.

In data set [1] the test system is HIV-1 (strain LAV). Kind of data set: Anti-HIV-1 activity in PHA-stimulated human PBM cells (virus quantitated by reverse transcriptase assay, day 6). It is filed as cell-based. To be noted: HIV-1 in human PBM cells. On the procedure: The ability of nucleosides to inhibit HIV can be measured by various experimental techniques. One technique, described in detail below, measures the inhibition of viral replication in phytohemagglutinin (PHA) stimulated human peripheral blood mononuclear (PBM) cells infected with HIV-1 (strain LAV). The amount of virus produced is determined by measuring the virus-coded reverse transcriptase enzyme. The amount of enzyme produced is proportional to the amount of virus produced.
(§1) Antiviral and cytotoxicity assays: Anti-HIV-1 activity of the compounds is determined in human peripheral blood mononuclear (PBM) cells as described previously (Schinazi, R. F.; McMillan, A.; Cannon, D.; Mathis, R.; Lloyd, R. M. Jr.; Peck, A.; Sommadossi, J.-P.; St. Clair, M.; Wilson, J.; Furman, P. A.; Painter, G.; Choi, W.-B.; Liotta, D. C. Antimicrob. Agents Chemother. 1992, 36, 2423; Schinazi, R. F.; Sommadossi, J.-P.; Saalmann, V.; Cannon, D.; Xie, M.-Y.; Hart, G.; Smith, G.; Hahn, E. Antimicrob. Agents Chemother. 1990, 34, 1061). Stock solutions (20-40 mM) of the compounds were prepared in sterile DMSO and then diluted to the desired concentration in complete medium. […] Cells are infected with the prototype HIV-1LAI at a multiplicity of infection of 0.01. Virus obtained from the cell supernatant are quantitated on day 6 after infection by a reverse transcriptase assay using poly(rA)n.oligo(dT)12-18 as template-primer. The DMSO present in the diluted solution (<0.1%) should have no effect on the virus yield. The toxicity of the compounds can be assessed in human PBM, CEM, and Vero cells. The antiviral EC50 and cytotoxicity IC50 is obtained from the concentration-response curve using the median effective method described by Chou and Talalay (Adv. Enzyme Regul. 1984, 22, 27).
Three-day-old phytohemagglutinin-stimulated PBM cells 10^6 cells/ml) from hepatitis B and HIV-1 seronegative healthy donors are infected with HIV-1 (strain LAV) at a concentration of about 100 times the 50% tissue culture infectious dose (TICD 50) per ml and cultured in the presence and absence of various concentrations of antiviral compounds.
Approximately one hour after infection, the medium, with the compound to be tested (2 times the final concentration in medium) or without compound, is added to the flasks (5 ml; final volume 10 ml).
The cells are exposed to the virus (about 2×10^5 dpm/ml, as determined by reverse transcriptase assay) and then placed in a CO2 incubator. HIV-1 (strain LAV) is obtained from the Center for Disease Control, Atlanta, Ga. The methods used for culturing the PBM cells, harvesting the virus and determining the reverse transcriptase activity are those described by McDougal et al. (J. Immun. Meth. 76, 171-183, 1985) and Spiral et al. (J. Clin. Meth. 25, 97-99, 1987), except that flngizone was not included in the medium (see Schinazi, et al., Antimicrob. Agents Chemother. 32, 1784-1787 (1988); Id., 34:1061-1067 (1990)).
On day 6, the cells and supernatant are transferred to a 15 ml tube and centrifuged at about 900 g for 10 minutes. Five ml of supernatant are removed and the virus concentrated by centrifugation at 40,000 rpm for 30 minutes (Beckman 70.1 Ti rotor). The solubilized virus pellet is processed for determination of the levels of reverse transcriptase. Results are expressed in dpm/ml of sampled supernatant. Virus from smaller volumes of supernatant (1 ml) can also be concentrated by centrifugation prior to solubilization and determination of reverse transcriptase levels.

Data set [2] concerns Vero cells. Description: Cytotoxicity in Vero cells. It is filed as cell-based. On the procedure:
as §1, with “[…].;” for “R. F.; McMillan, A.;”, “[…].;” for “A.; Sommadossi, J.-P.;”, “[…].” for “W.-B.; Liotta, D. C.”, “[…].;” for “R. F.; Sommadossi, J.-P.; Saalmann, V.;”, “[…].;” for “M.-Y.; Hart, G.;”

Data set [3] concerns CEM cells. Kind of data set: Cytotoxicity in CEM cells. It counts as cell-based, human. On the procedure:
as §1
The extent of anticancer activity can be easily assessed by assaying the compound according to the procedure below in a CEM cell or other tumor cell line assay. CEM cells are human lymphoma cells (a T-lymphoblastoid cell line that can be obtained from ATCC, Rockville, Md.). […] The toxicity is measured as IC50 micromolar). […] Drug solutions, including cycloheximide as a positive control, are plated in triplicate in 50 μl growth medium at 2 times the final concentration and allowed to equilibrate at 37° C. in a 5% CO2 incubator. Log phase cells are added in 50 μl growth medium to a final concentration of 2.5×10^3 (CEM and SK-MEL-28), 5×10^3 (MMAN, MDA-MB-435s, SKMES-1, DU-145, LNCap), or 1×10^4 (PC-3, MCF-7) cells/well and incubated for 3 (DU-145, PC-3, MMAN), 4 (MCF-7, SK-MEL-28, CEM), or 5 (SK-MES-1, MDA-MB-435s, LNCaP) days at 37° C. under a 5% CO2 air atmosphere. Control wells include media alone (blank) and cells plus media without drug. After growth period, 15 μl of Cell Titer 96 kit assay dye solution (Promega, Madison, Wis.) are added to each well and the plates are incubated 8 hr at 37° C. in a 5% CO2 incubator. Promega Cell Titer 96 kit assay stop solution is added to each well and incubated 4-8 hr in the incubator. Absorbance is read at 570 nm, blanking on the medium-only wells using a Biotek Biokinetics plate reader (Biotek, Winooski, Vt.). Average percent inhibition of growth compared to the untreated control is calculated. IC50, IC90, slope and r value are calculated by the method of Chou and Talalay. Chou T-C, Talalay P. Quantitative analysis of dose-effect relationships: The combined effects of multiple drugs or enzyme inhibitors. Adv Enzyme Regul 1984, 22:27-55.

Data set [4] deals with PBM cells. Kind of data set: Cytotoxicity in uninfected human PBM cells. It is filed as cell-based. The method, then:
(§2) Antiviral and cytotoxicity assays: Anti-HIV-1 activity of the compounds is determined in human peripheral blood mononuclear (PBM) cells as described previously (Schinazi, […].; Cannon, D.; Mathis, R.; Lloyd, R. M. Jr.; Peck, […].; St. Clair, M.; Wilson, J.; Furman, P. A.; Painter, G.; Choi, […]. Antimicrob. Agents Chemother. 1992, 36, 2423; Schinazi, […].; Cannon, D.; Xie, […].; Smith, G.; Hahn, E. Antimicrob. Agents Chemother. 1990, 34, 1061). Stock solutions (20-40 mM) of the compounds were prepared in sterile DMSO and then diluted to the desired concentration in complete medium. […] Cells are infected with the prototype HIV-1LAI at a multiplicity of infection of 0.01. Virus obtained from the cell supernatant are quantitated on day 6 after infection by a reverse transcriptase assay using poly(rA)n.oligo(dT)12-18 as template-primer. […] The toxicity of the compounds can be assessed in human PBM, CEM, and Vero cells. The antiviral EC50 and cytotoxicity IC50 is obtained from the concentration-response curve using the median effective method described by Chou and Talalay (Adv. Enzyme Regul. 1984, 22, 27). Mitogen stimulated uninfected human PBM cells (3.8×10^5 cells/ml) can be cultured in the presence and absence of drug under similar conditions as those used for the antiviral assay described above. The cells are counted after 6 days using a hemacytometer and the trypan blue exclusion method, as described by Schinazi et al., Antimicrobial Agents and Chemotherapy, 22(3), 499 (1982).

Data set [5] in a line: Cytotoxicity in Vero cells. To be noted: African green monkey, Vero cells. It counts as cell-based. On the procedure:
as §1, with “[…].;” for “R. F.; McMillan, A.;”, “[…].;” for “A.; Sommadossi, J.-P.;”, “[…].” for “W.-B.; Liotta, D. C.”, “[…].;” for “R. F.; Sommadossi, J.-P.; Saalmann, V.;”, “[…].;” for “M.-Y.; Hart, G.;”

Data set [6] is described as follows: Cytotoxicity in uninfected human PBM cells. It is filed as cell-based. Conditions: human, mitogen-stimulated uninfected human PBM cells; PMC Cells. On the procedure:
as §2

Data set [7] concerns the target HIV-1 heterodimer p66/51 reverse transcriptase (Human immunodeficiency virus type 1 group M subtype B, UniProt P04585). Description: HIV-1 reverse transcriptase extension assay, r(I)n.(dC)12-18 template-primer.
Experimental: Extension assays were performed using a r(I)n.(dC)12-18 homopolymer template-primer (Pharmacia, Piscataway, N.J.) and the HIV-1 heterodimer p66/51 reverse transcriptase (RT, Biotechnology General, Rehovat, Israel). The standard reaction mixture (100 μl) contained 100 mM Tris hydrochloride (pH 8.0), 50 mM KCl, 2 mM MgCl2, 0.05 units/ml r(I)n.(dC)12-18, 5 mM DTT, 100 μg/ml Bovine Serum Albumin, and 1 μM ^3H-dCTP (23 Ci/mmol). 3TCTP (0.001-50 μM) was the positive control. Compounds were incubated 1 hr at 37° C. in the reaction mixture with 1 unit HIV-1 RT. The reaction was stopped with the addition of an equal volume of cold 10% TCA/0.05% sodium pyrophosphate and incubated 30 minutes at 4° C. The precipitated nucleic acids were harvested onto fiberglass filter paper using a Packard manual harvester (Meriden, Conn.). The radiolabel uptake in counts per minute (cpm) was determined using a Packard 9600 Direct Beta counter.
[8] abbreviates: Human immunodeficiency virus 1, PBMC.

Where a name gives a salt, the structure may show the parent alone. A value given as a limit tells only on which side of the number the result lay.

On to `O=c1ccn([C@H]2O[C@@H](CO)C=C2F)c(=O)[nH]1` [Compound 316, 1-(2,3-Dideoxy-2-fluoro-(α,β)-L-gycero-pent-2-eno-furanosyl)uracil], for which the EC50 in data set [1] is greater than 100 µM. Moreover, the concentration for an effect of 90% (EC90) in data set [1] is greater than 100 µM. For the same compound, the half-inhibitory concentration (IC50) in data set [2], in data set [3] and in data set [4] was greater than 100 µM throughout.

For the compound `Nc1ncnc2c1ncn2[C@@H]1O[C@@H](CO)C=C1F` [Compound 336, 9-(2,3-dideoxy-2-fluoro-α-L-gycero-pent-2-enofuranosyl)adenine], in data set [1], the EC50 was 47.6 µM. This compound returned an EC90 in data set [1] of 332 µM. The IC50 in data set [2], in data set [3] and in data set [4] was greater than 100 µM in each case.

`Nc1ncnc2c1ncn2[C@H]1O[C@@H](CO)C=C1F` [Compound 335, 9-(2,3-dideoxy-2-fluoro-β-L-gycero-pent-2-enofuranosyl)adenine]: the EC50 in data set [1] amounted to 1.5 µM. Further, in data set [1], the EC90 is 15.1 µM. The 50% inhibitory concentration (IC50) in data set [2], in data set [3] and in data set [4] was greater than 100 µM throughout.

On to `Cc1cn([C@H]2C[C@H](N=[N+]=[N-])[C@@H](CO)O2)c(=O)[nH]c1=O` [AZT, 3′-azido-3′-deoxythymidine, reference compound], for which, in data set [1] (setting [8]), a half-maximal response (EC50) required 0.004 µM and the EC90 is 0.04 µM. The compound also came in with an IC50 in data set [5] of 29 µM. The compound also had an IC50 at 6 days in data set [6] greater than 100 µM.

Compound `Nc1ccn([C@@H]2O[C@@H](CO)C=C2F)c(=O)n1` [Compound 323, 1-(2,3-dideoxy-2-fluoro-α-L-gycero-pent-2-enofuranosyl)cytosine] yielded an EC50 in data set [1] greater than 100 µM. Also, the EC90 in data set [1] is greater than 100 µM. Further, the IC50 in data set [2], in data set [3] and in data set [4] was greater than 100 µM in each case.

In data set [1], `O=c1[nH]cnc2c1ncn2[C@@H]1O[C@@H](CO)C=C1F` [Compound 338, 9-(2,3-dideoxy-2-fluoro-α-L-gycero-pent-2-enofuranosyl)hypoxanthine] came in with an EC50 greater than 100 µM. Further, in data set [1], the EC90 is greater than 100 µM. For the same compound, the IC50 in data set [3] and in data set [4] was greater than 100 µM throughout.

For `O=c1[nH]cnc2c1ncn2[C@H]1O[C@@H](CO)C=C1F` [Compound 337, 9-(2,3-dideoxy-2-fluoro-β-L-gycero-pent-2-enofuranosyl)hypoxanthine], the EC50 in data set [1] was greater than 100 µM. Further, the EC90 in data set [1] was greater than 100 µM. The IC50 in data set [2], in data set [3] and in data set [4] was greater than 100 µM each time.

In turn, `Cc1cn([C@H]2O[C@@H](CO)C=C2F)c(=O)[nH]c1=O` [Compound 318, 1-(2,3-Dideoxy-2-fluoro-(α,β)-L-gycero-pent-2-eno-furanosyl)thymine] came in with an EC50 in data set [1] greater than 100 µM. Further, in data set [1], the EC90 is greater than 100 µM. The IC50 in data set [2], in data set [3] and in data set [4] was greater than 100 µM each time.

In the case of `Nc1nc(=O)n(C2C=CC(COP(=O)(O)OP(=O)(O)OP(=O)(O)O)C2)cc1F` (mixture of isomers) [(±)-carbocyclic-D4FC-TP, cis-(±)-Carbocyclic 2′,3′-didehydro-2′,3′-dideoxy-5-fluorocytidine 5′-triphosphate, triethylhydrogenammonium salt], in data set [7], the EC50 is 0.4 µM.

With `Nc1ccn([C@H]2O[C@@H](CO)C=C2F)c(=O)n1` [Compound 322, 1-(2,3-dideoxy-2-fluoro-β-L-gycero-pent-2-enofuranosyl)cytosine], the response in data set [1] was half-maximal at 0.51 µM (EC50). Also, the EC90 in data set [1] is 4.3 µM. Moreover, the IC50 in data set [2], in data set [3] and in data set [4] was greater than 100 µM each time.
